Measured values as given in ChEMBL document CHEMBL1126963, “Acid unit modifications of 1,2,4,5-substituted hydroxyacetophenones and the effect on in vitro and in vivo LTB4 receptor antagonism” (Bioorg Med Chem Lett, 1993).

Tests used:
Format in all cases: functional
Homo sapiens = species on record: Homo sapiens; assay: Antagonism of LTB4 receptor induced CD11b/CD18 adhesion protein up-regulation in human neutrophil
Cavia porcellus [1] = assay: Potency was evaluated in vivo in a guinea pig model of LTB4-induced airway obstruction upon intravenous administration
Cavia porcellus [2] = assay: Potency was evaluated in vivo in a guinea pig model of LTB4-induced airway obstruction upon oral administration

| Compound | IC50 (Homo sapiens) | ED50 (Cavia porcellus [1]) | ED50 (Cavia porcellus [2]) |
| --- | --- | --- | --- |
| CCCc1c(OCCCOc2cc(O)c(C(C)=O)cc2CC)cccc1OC(CC)C(=O)O (stereo not drawn) | 1940 nM | – | – |
| CCCc1c(OCCCOc2cc(O)c(C(C)=O)cc2CC)ccc2c1OC(C(=O)[O-])CC2.[Na+] (stereo not drawn) | 1600 nM | 0.23 mg/kg | 0.5 mg/kg |
| CCc1cc(C(C)=O)c(O)cc1OCCCCCC(C)(C)c1nn[nH]n1 [LY-255283] | – | 2.8 mg/kg | 11 mg/kg |

Continued, in another order:

| IC50 (Homo sapiens) | Compound | ED50 (Cavia porcellus [1]) | ED50 (Cavia porcellus [2]) |
| --- | --- | --- | --- |
| 3270 nM | CCCc1c(OCCCOc2cc(O)c(C(C)=O)cc2CC)cccc1OC(C)C(=O)O (stereo not drawn) | – | – |
| 4390 nM | CCCc1c(OCCCOc2cc(O)c(C(C)=O)cc2CC)cccc1OCC(=O)O | – | – |
